Measurements as given in US5418224A, “4,13-dioxabicyclo[8.2.1]tridecenone compounds and pharmaceutical compositions containing them” (Kali-Chemie Pharma GmbH, priority 1992, dated 1995).

Columns and labels:
beagle dogs [1] = experiment: In vivo determination of the effect on the resting tone of the esophagus sphincter (pull-through manometry); details: conscious fasting beagle dogs, 0.251 μmole/kg intraduodenally
Experimental: 3. In vivo determination of the effect of the substances on the resting tone of the esophagus sphincter.
This determination is carried out on trained, conscious, fasting beagle dogs which, before the test, have each been given an esophagus fistula and a duodenal cannula. The pressure of the lower esophagus sphincter is measured by means of a perfused catheter system which has a lateral opening and which is connected to a pressure transducer and a recorder. The catheter is passed through the esophagus fistula into the stomach and then slowly withdrawn manually (=pull-through manometry). A peak is recorded when the catheter part with the lateral opening passes through the high-pressure zone of the lower esophagus sphincter. The pressure in mm Hg is determined from this peak.
In this way, initially the basal pressure of the esophagus sphincter is determined as control value. Subsequently, the test substance is administered intraduodenally and, after 15 minutes, the pressure at the lower esophagus sphincter is measured at 2-minute intervals for a period of 46 minutes. The increase in the pressure after administration of test substance compared with the previously determined basal pressure is calculated.

motilin receptors = target: T1, motilin receptors (Oryctolagus cuniculus, UniProt G1T803); experiment: Binding capacity to motilin receptors: displacement of 125-iodine-labelled motilin, rabbit antrum crude membrane preparation; details: rabbit antrum crude membrane fraction, iodinated motilin 50 pM, 30° C., 60 minutes; read-out: pIC50 value (50% inhibition of the specific binding of the iodinated motilin to the motilin receptors) (converted)
T1 construct: fraction of a tissue homogenate from rabbit antrum; from tissue; host or cells: rabbit antrum, mucosa removed, crude membrane preparation
T1 sequence (G1T803 1-400): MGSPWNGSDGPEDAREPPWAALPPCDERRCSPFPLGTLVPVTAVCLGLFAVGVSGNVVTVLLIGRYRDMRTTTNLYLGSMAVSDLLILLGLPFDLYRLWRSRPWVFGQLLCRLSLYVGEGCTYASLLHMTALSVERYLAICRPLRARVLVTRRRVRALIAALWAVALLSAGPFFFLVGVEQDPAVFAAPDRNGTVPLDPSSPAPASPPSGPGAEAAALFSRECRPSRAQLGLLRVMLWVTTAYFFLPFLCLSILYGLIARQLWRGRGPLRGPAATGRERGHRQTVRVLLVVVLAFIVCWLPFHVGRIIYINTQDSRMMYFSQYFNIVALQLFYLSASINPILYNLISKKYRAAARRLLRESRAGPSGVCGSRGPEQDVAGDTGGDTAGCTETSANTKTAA
Experimental: 1. Determination of the binding capacity of the test substances to motilin receptors.
The affinity of the compounds of the formula I for motilin receptors is measured in vitro on a fraction of a tissue homogenate from rabbit antrum. The displacement of radioactively labelled iodinated motilin from motilin receptor binding by the test substances is determined.
The receptor binding studies were carried out by a modification of the method of Borman et al. (Regulatory Peptides 15 (1986), 143-153). To prepare the ^125 iodine-labelled motilin, motilin is iodinated enzymatically using lactoperoxidase in a known manner, for example analogously to the method described by Bloom et al. (Scand. J. Gastroenterol. 11 (1976) 47-52). […]
For the binding test, 200 μl of the crude membrane fraction (0.5-1 mg of protein) in 400 μl of a buffer solution A (50 mM tris-HCl buffer, 1.5% BSA, 10 mM MgCl2, pH 8.0) were incubated with 100 μl of iodinated motilin diluted in buffer solution B (10 mM tris-HCl buffer, 1% BSA, pH 8) (final concentration 50 pM) at 30° C. for 60 minutes. […] The residue obtained as pellet after the centrifugation was washed with buffer solution B and counted in a gamma counter. […] From this the corresponding pIC50 value was calculated.

beagle dogs [2] = experiment: In vivo determination of the effect on the rate of gastric emptying
Experimental: 2. In vivo determination of the effect of the substances on the rate of gastric emptying.
The determination of the rate of gastric emptying was carried out on beagle dogs which, before the test, had undergone surgical establishment of an esophagus fistula and implantation of a duodenal cannula. 15 minutes after duodenal administration of the test substances, the fasting conscious dogs were given 285 g of a semisolid caloric test meal through the esophagus fistula. The contents emptied from the stomach were collected through the duodenal cannula at 15-minute intervals. From the collected amounts of stomach contents, the time within which 50% emptying of the stomach takes place was calculated. The time is reported as measure of gastric emptying.

In the case of `CC[C@@H](O)[C@@](C)(O)[C@@H]1OC(=O)[C@H](C)[C@@H](O[C@H]2C[C@@](C)(OC)[C@@H](O)[C@H](C)O2)[C@H](C)[C@@H](O[C@@H]2O[C@H](C)C[C@H](N(C)C(C)C)[C@H]2O)[C@@]2(C)CC(C)=C(O2)[C@@H]1C` [Example 1, [2R,3R(2R',3R'),6R,7S,8S,9R,10R]-3-(2',3'-dihydroxypent-2'-yl)-7-[(2,6-dideoxy-3-C-methyl-3-0-methyl-α-L-ribo-hexopyranosyl)-oxy]-9-[(3,4,6-trideoxy-3-(N-methyl-N-isopropylamino)-β-D-xylo-hexopyranosyl)-oxy]-2,6,8,10,12-pentamethyl-4,13-dioxabicyclo[8.2.1]tridec-12-en-5-one], the “change of basal tone of the esophagus sphincter” value (beagle dogs [1]; compared with basal pressure) is reported as “more than doubled”, the “persistence of the effect on esophagus sphincter tone” value (beagle dogs [1]; throughout duration of the test) is reported as no less than 45 min and the IC50 (motilin receptors) is reported as 4.79 nM. For the same compound, the “effect on gastric emptying (in words)” value (beagle dogs [2]; beagle dogs, dose of 0.46 μmole/kg, duodenal administration) was “distinct stimulation of gastric emptying” and the “time for 50% emptying of the stomach” value (beagle dogs [2]; fasting conscious beagle dogs, 0.46 μmole/kg duodenal, 15 minutes before semisolid caloric test meal, control animal group 46 minutes) was 27 min.
